Test results taken from US20250170224A1, “METHODS AND COMPOSITIONS FOR TREATING MICROGLIAL DYSFUNCTION AND IMPROVING METABOLIC DYSFUNCTION” (Ultimate Medicine AG, priority 2021, published 2025).

Assay: In vivo intestinal permeability to CML (CML translocated into the circulation after oral gavage, LC-MS)
Design: species or system mouse
Details: young-adult and aged mice, SPF or GF, 4 hours post gavage
Procedure: Specific pathogen-free (SPF) and germ-free (GF) housed C57BL/6 mice were analyzed at 6-10 weeks of age (young-adult) and 96-104 weeks of age (aged). Mice of the aged group in the nontargeted metabolomics analysis were 17-18 months old. Except for nontargeted metabolomics and microbiota profiling, where only male mice were used, all groups included mice from both sexes. Mice were housed under a 12-hour light/12-hour dark cycle and temperatures of 18-23° C. with 40-60% humidity, with food and water given ad libitum. To avoid cage effects, mice from at least three different cages per experimental group were analyzed. […] Blood was collected retro-orbitally after 4 hours and fluorescence intensity was measured on fluorescence plates using an excitation wavelength of 493 nm and an emission wavelength of 518 nm. […] CML translocated into the circulation was measured by liquid chromatography-mass spectrometry (LC-MS). […]
Samples were extracted with precooled (−80° C.) extraction solution (80:20 methanol LC-MS grade: Milli-Q H2O). Targeted metabolite quantification by LC-MS was carried out using an Agilent 1290 Infinity II UHPLC system in line with an Agilent 6495 QQQ-MS operating in multiple reaction monitoring (MRM) mode. […] Peak areas were identified based on standards for each metabolite and calculated using MassHunter v.B.08.02 (Agilent). […]

N[C@@H](CCCCNCC(=O)O)C(=O)O [CML, N^6-carboxymethyllysine]
translocation of CML into the circulation after oral gavage: highest in aged SPF mice
